Assay results as given in patent publication US20190175671A1, “MICRORNA 22 REGULATORS COMPOSITIONS AND METHODS AND USES THEREOF” (priority 2017, published 2019).

Legend:
microRNA 22 = conditions: pancreatic cancer cells; cited from earlier work
[1] = system: Interferon Regulatory Factor 9; conditions: cited from earlier work
MIR22HG = test: Expression of long non-coding RNA MIR22HG

COc1cc(/C=C/C(=O)CC(=O)/C=C/c2ccc(O)c(OC)c2)ccc1O [curcumin, diferuloylmethane]
expression of microRNA 22 (microRNA 22): upregulation

CC(=O)Nc1ccc(O)cc1 [Acetaminophen]
effect on IRF9 [1]: inhibitor

CC(NCCC(c1ccccc1)c1ccccc1)c1ccccc1 (stereo not drawn) [Fendiline]
expression of lncRNA MIR22HG (MIR22HG): upregulates
